# Measured values: patent US11311520B2, “Substituted dihydroimidazopyridinediones as MKNK1 and MKNK2 inhibitors” (Bayer Pharma Aktiengesellschaft, priority 2017, dated 2022)
# Molecular target: human full-length MKNK1 (Homo sapiens (Human), UniProt Q9BUB5, T344D)
# Assay: MKNK1 kinase high ATP assay (TR-FRET)
# Format: biochemical
# Settings: 2 mM ATP, 15 min preincubation with enzyme, GST-MKNK1 (T344D)
# In short: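 GST-tagged full-length human MKNK1 (1-424, T344D, baculovirus-expressed) preincubated 15 min at 22 °C with compound, then reacted 30 min at 22 °C with 2 mM ATP and 0.06 μM biotinylated peptide (final) in HEPES pH 7.5. Phospho-substrate by TR-FRET (665/622 nm ratio), normalised to no-inhibitor and no-enzyme controls.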
# Chain of human full-length MKNK1 (Q9BUB5 other isoform, or with tags, fused parts or gaps T344D): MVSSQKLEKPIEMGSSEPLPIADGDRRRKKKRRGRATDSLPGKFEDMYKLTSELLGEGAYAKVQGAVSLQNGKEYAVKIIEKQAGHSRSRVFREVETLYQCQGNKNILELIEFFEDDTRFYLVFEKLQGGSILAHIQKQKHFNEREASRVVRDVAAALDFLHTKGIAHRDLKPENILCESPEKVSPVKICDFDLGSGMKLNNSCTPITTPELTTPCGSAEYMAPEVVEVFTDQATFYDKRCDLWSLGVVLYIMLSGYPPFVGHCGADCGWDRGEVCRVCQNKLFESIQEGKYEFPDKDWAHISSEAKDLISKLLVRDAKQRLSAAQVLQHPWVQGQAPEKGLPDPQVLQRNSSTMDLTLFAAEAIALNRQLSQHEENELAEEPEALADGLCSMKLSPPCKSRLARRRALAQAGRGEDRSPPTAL
row,SMILES,IC50 [nM]
1,"Cc1cc(Nc2ncnc3sc(C(=O)NCCN(C)C)cc23)c(=O)n2c1C(=O)NC21CCC1 [Example 151, N-[2-(Dimethylamino)ethyl]-4-[(8′-methyl-1′,5′-dioxo-1′,5′-dihydro-2′H-spiro[cyclobutane-1,3′-imidazo[1,5-a]pyridin]-6′-yl)amino]thieno[2,3-d]pyrimidine-6-carboxamide]",4
2,"Cc1cc(Nc2ncnc3sc(C(=O)N(C)CCN(C)C)cc23)c(=O)n2c1C(=O)NC21CCC1 [Example 152, N-[2-(Dimethylamino)ethyl]-N-methyl-4-[(8′-methyl-1′,5′-dioxo-1′,5′-dihydro-2′H-spiro[cyclobutane-1,3′-imidazo[1,5-a]pyridin]-6′-yl)amino]thieno[2,3-d]pyrimidine-6-carboxamide]",7.4
3,"Cc1cc(Nc2ncnc3sc(C(=O)N4CC(NC(=O)OC(C)(C)C)C4)cc23)c(=O)n2c1C(=O)NC21CCC1 [Example 153, tert-Butyl [1-({4-[(8′-methyl-1′,5′-dioxo-1′,5′-dihydro-2′H-spiro[cyclobutane-1,3′-imidazo[1,5-a]pyridin]-6′-yl)amino]thieno[2,3-d]pyrimidin-6-yl}carbonyl)azetidin-3-yl]carbamate]",5.3
4,"Cc1cc(Nc2ncnc3sc(C(=O)N4CC(N)C4)cc23)c(=O)n2c1C(=O)NC21CCC1 [Example 154, 6′-({6-[(3-Aminoazetidin-1-yl)carbonyl]thieno[2,3-d]pyrimidin-4-yl}amino)-8′-methyl-2′H-spiro[cyclobutane-1,3′-imidazo[1,5-a]pyridine]-1′,5′-dione]",5
5,"Cc1cc(Nc2ncnc3sc(C(=O)N4CC(C#N)C4)cc23)c(=O)n2c1C(=O)NC21CCC1 [Example 155, 1-({4-[(8′-Methyl-1′,5′-dioxo-1′,5′-dihydro-2′H-spiro[cyclobutane-1,3′-imidazo[1,5-a]pyridin]-6′-yl)amino]thieno[2,3-d]pyrimidin-6-yl}carbonyl)azetidine-3-carbonitrile]",5.3
6,"Cc1cc(Nc2ncnc3sc(C(=O)N4CC[C@@H](N(C)C)C4)cc23)c(=O)n2c1C(=O)NC21CCC1 [Example 156, 6′-[(6-{[(3R)-3-(Dimethylamino)pyrrolidin-1-yl]carbonyl}thieno[2,3-d]pyrimidin-4-yl)amino]-8′-methyl-2′H-spiro[cyclobutane-1,3′-imidazo[1,5-a]pyridine]-1′,5′-dione]",4.3
7,"Cc1cc(Nc2ncnc3sc(C(=O)N4CCC(N(C)C)CC4)cc23)c(=O)n2c1C(=O)NC21CCC1 [Example 157, 6′-[(6-{[4-(Dimethylamino)piperidin-1-yl]carbonyl}thieno[2,3-d]pyrimidin-4-yl)amino]-8′-methyl-2′H-spiro[cyclobutane-1,3′-imidazo[1,5-a]pyridine]-1′,5′-dione]",7.9
8,"Cc1cc(Nc2ncnc3sc(C(=O)N4C[C@H]5C[C@@H]4CO5)cc23)c(=O)n2c1C(=O)NC21CCC1 [Example 158, 8′-Methyl-6′-({6-[(1R,4R)-2-oxa-5-azabicyclo[2.2.1]hept-5-ylcarbonyl]thieno[2,3-d]pyrimidin-4-yl}amino)-2′H-spiro[cyclobutane-1,3′-imidazo[1,5-a]pyridine]-1′,5′-dione]",5
9,"Cc1cc(Nc2ncnc3[nH]cnc23)c(=O)n2c1C(=O)NC21CCC1 [Example 159, 8′-Methyl-6′-(9H-purin-6-ylamino)-2′H-spiro[cyclobutane-1,3′-imidazo[1,5-a]pyridine]-1′,5′-dione]",2.1
10,"Cc1cc(Nc2ncnc3[nH]ncc23)c(=O)n2c1C(=O)NC21CCC1 [Example 160, 8′-Methyl-6′-(1H-pyrazolo[3,4-d]pyrimidin-4-ylamino)-2′H-spiro[cyclobutane-1,3′-imidazo[1,5-a]pyridine]-1′,5′-dione]",2.9
11,"Cc1cc(Nc2ncnc3c2CN(C(=O)OC(C)(C)C)C3)c(=O)n2c1C(=O)NC21CCC1 [Example 162, tert-Butyl 4-[(8′-methyl-1′,5′-dioxo-1′,5′-dihydro-2′H-spiro[cyclobutane-1,3′-imidazo[1,5-a]pyridin]-6′-yl)amino]-5,7-dihydro-6H-pyrrolo[3,4-d]pyrimidine-6-carboxylate]",21.7
12,"Cc1cc(Nc2ncnc3c2CN(C(=O)OC(C)(C)C)C3)c(=O)n2c1C(=O)NC2(C)C [Example 163, tert-Butyl 4-[(3,3,8-trimethyl-1,5-dioxo-1,2,3,5-tetrahydroimidazo[1,5-a]pyridin-6-yl)amino]-5,7-dihydro-6H-pyrrolo[3,4-d]pyrimidine-6-carboxylate]",16.8
13,"Cc1cc(Nc2ncnc3scnc23)c(=O)n2c1C(=O)NC2(C)C [Example 164, 3,3,8-Trimethyl-6-([1,3]thiazolo[5,4-d]pyrimidin-7-ylamino)-2,3-dihydroimidazo[1,5-a]pyridine-1,5-dione]",383
14,"Cc1cc(Nc2ncnc3c2CNC3)c(=O)n2c1C(=O)NC2(C)C [Example 165, 6-(6,7-Dihydro-5H-pyrrolo[3,4-d]pyrimidin-4-ylamino)-3,3,8-trimethyl-2,3-dihydroimidazo[1,5-a]pyridine-1,5-dione]",168
15,"Cc1cc(Nc2ncnc3ccc(Cl)cc23)c(=O)n2c1C(=O)NC2(C)C [Example 166, 6-[(6-Chloroquinazolin-4-yl)amino]-3,3,8-trimethyl-2,3-dihydroimidazo[1,5-a]pyridine-1,5-dione]",45.9
16,"Cc1cc(Nc2ncnc3ccc(Cl)cc23)c(=O)n2c1C(=O)NC21CCC1 [Example 167, 6′-[(6-Chloroquinazolin-4-yl)amino]-8′-methyl-2′H-spiro[cyclobutane-1,3′-imidazo[1,5-a]pyridine]-1′,5′-dione]",5.7
17,"Cc1cc(Nc2ncnc3c2CNC3)c(=O)n2c1C(=O)NC21CCC1 [Example 168, 6′-(6,7-Dihydro-5H-pyrrolo[3,4-d]pyrimidin-4-ylamino)-8′-methyl-2′H-spiro[cyclobutane-1,3′-imidazo[1,5-a]pyridine]-1′,5′-dione]",49.5
18,Cc1cc(Nc2ncnc3sc(C(=O)O)c(C)c23)c(=O)n2c1C(=O)NC21CCC1 [Example 169],15.7
19,"Cc1cc(Nc2ncnc3cccc(C)c23)c(=O)n2c1C(=O)NC21CCC1 [Example 170, 8′-methyl-6′-[(5-methylquinazolin-4-yl)amino]-2′H-spiro[cyclobutane-1,3′-imidazo[1,5-a]pyridine]-1′,5′-dione]",5.3
20,"Cc1cc(Nc2ncnc3ccc(F)cc23)c(=O)n2c1C(=O)NC21CCC1 [Example 171, 6′-[(6-fluoroquinazolin-4-yl)amino]-8′-methyl-2′H-spiro[cyclobutane-1,3′-imidazo[1,5-a]pyridine]-1′,5′-dione]",6
21,"Cc1cc(Nc2ncnc3ccccc23)c(=O)n2c1C(=O)NC21CCC1 [Example 172, 8′-methyl-6′-[(quinazolin-4-yl)amino]-2′H-spiro[cyclobutane-1,3′-imidazo[1,5-a]pyridine]-1′,5′-dione]",12.1
22,"Cc1cc(Nc2ncnc3scnc23)c(=O)n2c1C(=O)NC21CSC1 [Example 173, 8-methyl-6-[([1,3]thiazolo[5,4-d]pyrimidin-7-yl)amino]-2H-spiro[imidazo[1,5-a]pyridine-3,3′-thietane]-1,5-dione]",5.8
23,"Cc1cc(Nc2ncnc3cccc(C)c23)c(=O)n2c1C(=O)NC21CSC1 [Example 174, 8-methyl-6-[(5-methylquinazolin-4-yl)amino]-2H-spiro[imidazo[1,5-a]pyridine-3,3′-thietane]-1,5-dione]",12.8
